Assay [1] deals with Hedgehog acyltransferase (Hhat) (Homo sapiens, UniProt Q5VTY9). Put plainly: NBD-palmitoyl-CoA uptake into liposomes with purified Hhat. The assay is classed as biochemical.
The target in assay [2] is Hedgehog acyltransferase (Hhat) (Homo sapiens, UniProt Q5VTY9, Y351A). Nature of the assay: in vitro Shh peptide palmitoylation by purified Y351A Hhat. Type of assay: biochemical.
Hedgehog acyltransferase (Hhat) (Homo sapiens, UniProt Q5VTY9, Y351A), sequence (Q5VTY9 whole entry Y351A): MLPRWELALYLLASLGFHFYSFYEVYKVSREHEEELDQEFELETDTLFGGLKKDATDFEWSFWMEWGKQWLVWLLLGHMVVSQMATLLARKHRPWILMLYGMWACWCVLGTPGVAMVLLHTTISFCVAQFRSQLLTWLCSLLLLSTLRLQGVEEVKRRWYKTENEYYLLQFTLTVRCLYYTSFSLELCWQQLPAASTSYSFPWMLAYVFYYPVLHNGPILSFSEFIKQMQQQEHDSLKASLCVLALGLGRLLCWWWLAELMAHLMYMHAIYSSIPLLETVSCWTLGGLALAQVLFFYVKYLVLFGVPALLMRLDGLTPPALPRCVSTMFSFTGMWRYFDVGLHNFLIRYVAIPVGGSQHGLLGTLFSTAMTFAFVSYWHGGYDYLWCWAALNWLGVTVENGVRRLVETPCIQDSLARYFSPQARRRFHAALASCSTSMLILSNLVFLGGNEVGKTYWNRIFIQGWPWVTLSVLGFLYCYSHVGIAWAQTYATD

Hedgehog acyltransferase (Hhat) (Homo sapiens, UniProt Q5VTY9), sequence (Q5VTY9 whole entry): as the sequence (Q5VTY9 whole entry Y351A) above, with A351Y counted along it

The compound TDI-3410 registered an IC50 in assay [1] of 2450 nM. `CC(C)(COP(=O)(O)OP(=O)(O)OC[C@H]1O[C@@H](n2cnc3c(N)ncnc32)[C@H](O)[C@@H]1OP(=O)(O)O)[C@@H](O)C(=O)NCCC(=O)NCCSC(=O)CCCCCCCCCCCCCCCI` [[125I] IodoPalmitoyl-CoA]: the “in vitro Shh peptide palmitoylation by purified Y351A Hhat” value in assay [2] is “Y351A retained near-WT levels of Shh palmitoylation activity when assayed in vitro using detergent-solubilized membranes and as a purified enzyme”.

By IC50 is commonly meant the point on the concentration scale where inhibition reaches its midpoint. High values mean weaker potency, low ones greater potency.

For the origin of these results see publication PMC6948154 (Cell reports, 2019).
